Assay results: PubChem BioAssay (NCI)
Several values for one entry are separate records, joined by “and”; a condition that tells them apart may be missing. Equal values may be shown once.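 Where inhibition never reached the appropriate level, the endpoint shown equals the highest concentration tested. Otherwise, values were interpolated linearly from a five-concentration, 48-hour dose response in 96-well plates. Abbreviation: GI50, concentration required for 50% inhibition of growth. TGI denotes the concentration required for complete inhibition of growth.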

Tested on: MDA-MB-468 breast
Assay: NCI-60 cell line screen, 48 h

Compound | GI50 | TGI
CCN(CC)CCCC(C)N=c1cc(Nc2cc(=NC(C)CCCN(CC)CC)c3cc(OC)ccc3o2)oc2ccc(OC)cc12 (configuration not stated) | 0.543 µM | 1.19 µM
COc1cc(OC)c(NC(=O)c2cc3ccccc3cc2O)cc1Cl | 3.12 µM | 8.24 µM
CCN(CC)CCNc1cc(-c2cccc(OC(F)(F)F)c2)nc2ccc(N3CCCC3)cc12 | 1.64 µM and 1.84 µM | 3.18 µM and 3.61 µM
COc1cc(-c2nn(-c3cccc(NC(=O)c4ccc(N5CCOCC5)c(C(F)(F)F)c4)c3)cc2-c2ccncc2)ccc1Cl | 0.183 µM | 0.781 µM
O=C(NO)c1ccc(Cn2c(=O)n(-c3ccccc3F)c(=O)c3ccccc32)cc1 | 1.18 µM | 3.21 µM
COc1cnc2c(c1)C(=O)c1c-2n(CCCNC(C)C)c(=O)c2cc(F)ccc12 | 0.226 µM | 0.702 µM
O=C(Nc1nc2ccc(F)cc2s1)c1cccnc1Nc1ccc(Cl)cc1 | 1.61 µM | > 100 µM
CN(C)CCCNC(=O)c1cncnc1Nc1ccc(OCc2cccc(F)c2)c(Cl)c1 | 1.55 µM | 3.02 µM
O=C1OC(c2ccccc2)(c2cc(Br)c(O)c(Br)c2)c2ccccc21 (configuration not stated) | 27 µM | 90.9 µM
CCCCCCc1nc2nc(Cl)c(Cl)nc2[nH]1 | 2.9 µM | > 100 µM
C[C@H]1[C@H]2[C@H]3CC[C@@H]4[C@@]5(C)C/C(=C/c6cccnc6)C(=O)C(C)(C)[C@@H]5CC[C@@]4(C)[C@]3(C)CC[C@]23CO[C@]1(C)[C@@H](C(=O)/C=C\c1cccnc1)C3 | 0.864 µM | 2.39 µM
COc1cccc2c1c(C1=C(c3cn(C)c4ccccc34)C(=O)NC1=O)cn2C | > 25 µM | > 25 µM
COc1cc(-c2ncn(/C=C\C(=O)OC(C)C)n2)cc(C(F)(F)F)c1 | 0.126 µM and 0.141 µM | 0.67 µM and 1.24 µM
O=C(/C(=C/c1ccc([N+](=O)[O-])cc1)SCc1ccc(F)cc1)c1ccc(Cl)cc1 | 9.46 µM | 38.7 µM
c1ccc(CN=C(NCc2ccccc2)NCc2ccccc2)cc1 | 2.29 µM | 5.38 µM
COc1ccc(-c2nc(N3CCN(C(=O)C4CCCCC4)CC3)c3c4c(sc3n2)CCCC4)cc1 | 29.1 µM | > 100 µM
Cc1ncsc1-c1ccc(CNC(=O)[C@@H]2C[C@@H](O)CN2C(=O)[C@@H](NC(=O)C2(C#N)CC2)C(C)(C)C)cc1 | 54.5 µM | > 100 µM
CCc1ccc2c(c1)N(CCO)C1=C(C(=O)OC1)C2c1cccc(Cl)c1 (configuration not stated) | 0.239 µM | 0.861 µM

Compound | GI50 | TGI
CCS(=O)(=O)Nc1cccc(Nc2c3cccc(C)c3nc3c(C)cccc23)c1OC | 2.24 µM | 25.5 µM
CN1CC(CNC(=O)OCc2ccccc2)CC2c3cccc4c3c(cn4C)CC21 (configuration not stated) | 1.61 µM | 3.12 µM
Nc1c(C(=O)c2ccc(CCCN3CCOCC3)cc2)cnn1-c1ccc(F)cc1 | 8.19 µM | > 25 µM
CC/C(=C(/c1ccc(O)cc1)c1ccc(OCCN2CCCCC2)cc1)c1ccc(OC)cc1 | 1.37 µM | 3.22 µM
O=S(=O)(Nc1cc(Cl)ccc1Cl)c1ccc(-c2cnc(C3CC3)o2)cc1 | 0.821 µM | 30.1 µM
Cc1cc(O)cc(C)c1/C=C/c1cncc(-c2nn[nH]n2)c1 | > 25 µM | > 25 µM
Cc1nc2cnc(N)c(C#Cc3cncc(C(=O)Nc4ccc(Cl)c(C(F)(F)F)c4)c3)c2nc1C | 2.87 µM | 11.6 µM
C/C(=C(\c1ccc(OCCN2CCCCCC2)cc1)c1ccc(OC(=O)Cc2ccccc2)cc1)c1ccc(Cl)cc1 | 1.99 µM | 4.38 µM
Cc1cc(Oc2ccc3nc(COc4ccc(CC5SC(=O)NC5=O)cc4)n(C)c3c2)cc(C)c1N (configuration not stated) | 25.9 µM | > 93.6 µM
CCOC(=O)[C@@H](C)C[C@H](Cc1ccccc1)NC(=O)c1csc([C@@H](C[C@H](C(C)C)N(C)C(=O)[C@H](CC)NC(=O)[C@H]2CCCCN2C)OC(C)=O)n1 | < 0.00167 µM | > 12.6 µM
O=C(NCc1ccncc1)C12CC3CC(C1)CC(c1ccc(Cl)cc1)(C3)C2 | 6.58 µM | 21.1 µM
Cc1ccc(-c2nc(N3CCCNCC3)c3oc(-c4ccccc4)nc3n2)cc1 | 1.55 µM | 3.24 µM
COC(=O)[C@H](Cc1ccc(O)cc1)NC(=O)[C@@H](OC)[C@@H]1Cc2cc3cc(OC4CC(OC5CC(O)C(O)C(C)O5)C(O)C(C)O4)c(C)c(O)c3c(O)c2C(=O)[C@H]1OC1CC(OC2CC(OC3CC(C)(O)C(O)C(C)O3)C(O)C(C)O2)C(O)C(C)O1 (some centres not stated) | 0.0672 µM | 0.839 µM
CCc1cc2c(cc1N1CCC(N3CCOCC3)CC1)C(C)(C)c1[nH]c3cc(C#N)ccc3c1C2=O | 1.8 µM and 2.05 µM and 2.14 µM | 5.25 µM and 5.67 µM and 7.85 µM
CNC(=O)Oc1cc(C)c(/C=C/c2cncc(C(=O)NC)c2)c(C)c1 | 11 µM | > 25 µM
COc1ccc(-c2c(-c3cc(OC)c(OC)c(OC)c3)noc2N)cc1 | < 0.0143 µM | 1.1 µM
CC1=C([Te]c2ccc(O)cc2)C(=O)c2ccccc2C1=O | 0.697 µM | 2.17 µM
C=CN(C)S(C)(=O)=O | > 100 µM | > 100 µM
